Results as given in a compilation of properties of binary mixtures (doi:10.1021/je700428f).

Assay: xn = mol fraction of the nth substance listed
Settings: 100 kPa

CCCO + C=CC[n+]1ccn(C)c1.O=S(=O)([N-]S(=O)(=O)C(F)(F)F)C(F)(F)F
speed of sound (298.15 K, x2 = 0): 1206.5 m/s
speed of sound (338.15 K, x2 = 0): 1071.5 m/s
speed of sound (343.15 K, x2 = 0): 1054.5 m/s

C=CC[n+]1ccn(C)c1.O=S(=O)([N-]S(=O)(=O)C(F)(F)F)C(F)(F)F + CCCO
speed of sound (298.15 K, x1 = 0.2987): 1189.5 m/s
speed of sound (308.15 K, x1 = 0.8024): 1207.5 m/s
speed of sound (313.15 K, x1 = 0.5004): 1173.5 m/s
speed of sound (323.15 K, x1 = 0.2987): 1127.5 m/s

CC[S+](CC)CC.O=S(=O)([N-]S(=O)(=O)C(F)(F)F)C(F)(F)F + CCCO
speed of sound (293.15 K, x1 = 0.0493): 1205.5 m/s
speed of sound (308.15 K, x1 = 0.0493): 1159.5 m/s
speed of sound (323.15 K, x1 = 0.903): 1181.5 m/s

CCCO + CC[S+](CC)CC.O=S(=O)([N-]S(=O)(=O)C(F)(F)F)C(F)(F)F
speed of sound (338.15 K, x2 = 0): 1071.5 m/s
speed of sound (343.15 K, x2 = 0): 1054.5 m/s
